Test results from patent US20230190760A1, “ADVANTAGEOUS THERAPIES FOR DISORDERS MEDIATED BY IKAROS OR AIOLOS” (C4 Therapeutics, Inc., priority 2020, published 2023).
“Also recorded” adds a separate entry of the source.

Experiments:
[1] = tested on: anaplastic large cell lymphoma (ALCL) cell lines; assay: Anti-cancer activity in ALCL cell lines; type: cell-based; conditions: four out of six cell lines were responsive; read-out: mean IC50 among the responsive lines
[2] = biological target: G1 to S Phase Transition 1 (GSPT1) (Homo sapiens, UniProt P15170); assay: Targeted cell-based assay for GSPT1; conditions: up to 10 μM
HepG2 liver cancer cells = assay: Viability assay in HepG2 liver cancer cells; type: cell-based; conditions: concentrations up to 3.3 μM
IKZF1 = biological target: T1, IKZF1 (Rattus norvegicus, UniProt A0A0G2JVD9); assay: Ex vivo IKZF1 degradation in PBMC, rat; type: cell-based; conditions: rat cells
T1 construct: from tissue; host or cells: peripheral blood cells (PBMC) of rats, ex vivo
Method: IKZF1/3 are not degraded in mouse cells treated with thalidomide or its IMiD® analogs because of a single amino acid difference in mouse cereblon compared to human cereblon that causes steric hindrance and prevents recruitment of IKZF1/3. Ex vivo studies were performed in peripheral blood cells (PBMC) of mice, rats, dogs, and monkeys to identify relevant species for IND enabling-toxicity studies based on the degree of IKZF1 degradation by Compound 1. IKZF1 was not degraded in mouse or rat cells by Compound 1, thus, while rat could not be considered a pharmacologically relevant species for human risk assessment, it was chosen as the rodent species for toxicological studies because it is widely used in toxicity testing and a substantial historical toxicology database is available. […] Therefore, cynomolgus monkey was chosen for non-rodent toxicological studies.

NCIH929.1 cells = assay: NCIH929.1 cell viability assay (CellTiter-Glo, GI50); type: cell-based; conditions: 96 hr
RPMI-8226 tumors = assay: RPMI-8226 xenograft, crossover from pomalidomide to Compound 1; type: in vivo, mice; conditions: 100 μg/kg/day
Method: Vehicle treated animals were treated for 28 days until tumors reached a MTV of 2211 mm^3. […] Data are expressed as MTV±SEM.
Tumor growth was monitored throughout the study. […] Measurements were twice weekly. The health of the mice was monitored, and noteworthy clinical observations were recorded. Acceptable toxicity was defined as a group's mean BW loss of less than 20% during the study and not more than one treatment related death among ten treated animals, or 10%.
Animals were weighed on a twice weekly schedule.

[3] = tested on: IKZF1, IKZF3, IRF-1, IRF-4 and Caspase-3; assay: KI-JK ALCL tumor protein expression, western blot (Example 20); type: in vivo, mice; conditions: 100 μg/kg PO
Method: A second xenograft study was conducted in female NOD SCID mice bearing KI-JK ALCL tumors. […] Once tumors reached a mean tumor volume (MTV) of 450 mm^3 they were stratified into two groups.
For the vehicle control group, 2 mice were sacrificed, and tumors harvested 24 hours post a single dose. Mice in the Compound 1 group were sampled at 4- and 24-hours post dose a single dose, with two tumors collected per time point. Additional mice were dosed daily for 5 or 7 days with tumor collections 24 hours post last dose, with 2 mice sampled per time point. Tumors were then mechanically homogenized, and protein extracted using RIPA buffer (Sigma Aldrich). Protein concentration was quantified using a Pierce™ BCA Protein Assay Kit, samples were reduced, and equal protein amounts were then loaded onto a western blot gel for analysis. Tumors were analyzed for IKZF1 (Invitrogen, PA5-23728), IKZF3 (CST, 15103), IRF-1 (CST, 8478), IFR-4 (CST, 15106), and Caspase-3 (CST, 9662) expression. […] Data is expressed as percentage of each target in comparison to the target level measured in the vehicle control and normalized to GAPDH levels to control for protein loading. Error bars represent ±SEM values.

[4] = Plasma PK and interconversion in monkeys; type: in vivo; conditions: monkey, Compound 1 60 μg/kg or 100 μg/kg PO
Method: Compound 1 was administered to a rat at a concentration of 30 mg/kg PO and monkeys at a concentration of either 60 μg/kg or 100 μg/kg PO. At the indicated timepoints shown in FIG. 25A and FIG. 25B, plasma samples were collected and the Cmax, half-life, and AUC0-inf were determined for both Compound 1 and a metabolite of Compound 1, Compound 14. The percent of Compound 14 was also determined (Table 13). PK values dose normalized to 1 mg/kg. FIG. 25A is a graph measuring the concentration of Compound 1 or Compound 14 over the course of 24 hours in monkeys administered 100 μg/kg or 60 μg/kg of Compound 1. FIG. 25B is a graph measuring the concentration of Compound 1 or Compound 14 over the course of 24 hours in a rat administered 30 mg/kg of Compound 1.

[5] = tested on: NCI-H929 multiple myeloma tumors; assay: NCI-H929 multiple myeloma xenograft, NOD SCID mice (Example 31); type: in vivo
Method: Compound 1 was administered QD (every day) orally (PO). […]
For the NCI-H929 cells, the xenograft study was conducted in female NOD SCID mice bearing NCI-H929 multiple myeloma tumors.
After the dosing period, tumor growth was monitored for 45 days. […] After the initial 21 days of dosing, all Compound 1 groups were monitored for tumor growth. The 10 μg/kg group was removed from study on 39. The 30 μg/kg group tumors began to regrow, and PO daily dosing resumed starting on day 40 for an additional 23 days. Statistical analysis was performed using two-way analysis of variance (ANOVA). Data are expressed as MTV±SEM.

IKZF3 = biological target: T2, IKZF3 (Homo sapiens, UniProt Q96SW2+Q9UKT9); assay: NCI-H929 xenograft pharmacodynamic and pharmacokinetic study (Example 40); type: in vivo, mice
T2 construct: from tissue; host or cells: NCI-H929 MM xenograft tumours in female NOD SCID mice
Method: A xenograft study was conducted in female NOD SCID mice bearing NCI-H929 MM tumors. Female SCID mice were inoculated subcutaneously in the right flank with 10×10^6 tumors cells in 0.2 mL of PBS supplemented with matrigel (PBS:matrigel=1:1). Tumor volume was measured twice weekly in two dimensions using calipers, and volume was calculated using the formula: (w2×l)/2=mm^3, assuming 1 mg is equivalent to 1 mm^3 of tumor volume.
For the pharmacodynamic and pharmacokinetic portion of this study 3 mice were sacrificed per time point with tumors and plasma harvested, with mice in the vehicle control group being sacrificed 24 post single dose. […] Tumors were then mechanically homogenized, and protein extracted using RIPA buffer (Sigma Aldrich). Protein concentration was quantified using a Pierce™ BCA Protein Assay Kit, samples were reduced, and equal protein amounts were then loaded onto a western blot gel for analysis. […] The intensity of individual bands was measured for data analysis using Image Studio NIR software. Protein expression was quantitated in relation to the reference protein, GAPDH, to control for total protein concentration. […] Data is represented as percent of target present in the vehicle control and normalized for total protein. […]

WSU-DLCL2 = assay: Anti-proliferative activity, 96 hours; conditions: Homo sapiens, WSUDLCL2, 96 h
DL40 = assay: Anti-proliferative activity, 96 hours
SR = assay: Anti-proliferative activity, 96 hours; conditions: Homo sapiens
HH = assay: Anti-proliferative activity, 96 hours; conditions: Homo sapiens
MM.1R = assay: Anti-proliferative activity, 96 hours
KMS-26 = assay: Anti-proliferative activity, 96 hours; conditions: KMS-26, 96 h

T2 sequence (Q9UKT9 whole entry): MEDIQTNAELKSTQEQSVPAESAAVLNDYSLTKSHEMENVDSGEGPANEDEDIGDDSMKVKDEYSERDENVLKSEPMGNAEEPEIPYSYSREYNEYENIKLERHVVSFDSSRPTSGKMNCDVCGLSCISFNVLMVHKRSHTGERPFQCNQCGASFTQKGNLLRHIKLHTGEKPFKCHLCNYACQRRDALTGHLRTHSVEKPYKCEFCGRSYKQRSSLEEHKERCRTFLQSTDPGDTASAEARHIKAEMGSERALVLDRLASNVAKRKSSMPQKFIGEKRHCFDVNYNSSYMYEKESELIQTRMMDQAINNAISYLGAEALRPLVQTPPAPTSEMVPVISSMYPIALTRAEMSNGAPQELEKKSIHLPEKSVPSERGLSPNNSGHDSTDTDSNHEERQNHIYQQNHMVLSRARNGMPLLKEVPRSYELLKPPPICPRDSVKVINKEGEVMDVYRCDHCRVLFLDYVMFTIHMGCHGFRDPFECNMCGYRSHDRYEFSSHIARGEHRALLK
T2 sequence (Q96SW2 whole entry): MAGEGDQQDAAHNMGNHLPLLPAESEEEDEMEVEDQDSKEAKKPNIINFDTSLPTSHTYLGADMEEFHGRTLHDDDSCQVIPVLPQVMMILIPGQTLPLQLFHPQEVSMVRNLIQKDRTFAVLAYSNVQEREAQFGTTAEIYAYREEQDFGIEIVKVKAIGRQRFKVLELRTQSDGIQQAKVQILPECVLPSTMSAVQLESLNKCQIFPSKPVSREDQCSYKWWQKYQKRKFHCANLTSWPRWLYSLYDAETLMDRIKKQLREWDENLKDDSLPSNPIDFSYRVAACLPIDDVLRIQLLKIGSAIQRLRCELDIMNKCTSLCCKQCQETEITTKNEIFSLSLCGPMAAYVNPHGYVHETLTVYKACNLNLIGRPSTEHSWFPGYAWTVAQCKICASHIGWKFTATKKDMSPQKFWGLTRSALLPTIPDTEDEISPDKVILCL
T2 sequence (Q16531 2-1140 partner limits assumed): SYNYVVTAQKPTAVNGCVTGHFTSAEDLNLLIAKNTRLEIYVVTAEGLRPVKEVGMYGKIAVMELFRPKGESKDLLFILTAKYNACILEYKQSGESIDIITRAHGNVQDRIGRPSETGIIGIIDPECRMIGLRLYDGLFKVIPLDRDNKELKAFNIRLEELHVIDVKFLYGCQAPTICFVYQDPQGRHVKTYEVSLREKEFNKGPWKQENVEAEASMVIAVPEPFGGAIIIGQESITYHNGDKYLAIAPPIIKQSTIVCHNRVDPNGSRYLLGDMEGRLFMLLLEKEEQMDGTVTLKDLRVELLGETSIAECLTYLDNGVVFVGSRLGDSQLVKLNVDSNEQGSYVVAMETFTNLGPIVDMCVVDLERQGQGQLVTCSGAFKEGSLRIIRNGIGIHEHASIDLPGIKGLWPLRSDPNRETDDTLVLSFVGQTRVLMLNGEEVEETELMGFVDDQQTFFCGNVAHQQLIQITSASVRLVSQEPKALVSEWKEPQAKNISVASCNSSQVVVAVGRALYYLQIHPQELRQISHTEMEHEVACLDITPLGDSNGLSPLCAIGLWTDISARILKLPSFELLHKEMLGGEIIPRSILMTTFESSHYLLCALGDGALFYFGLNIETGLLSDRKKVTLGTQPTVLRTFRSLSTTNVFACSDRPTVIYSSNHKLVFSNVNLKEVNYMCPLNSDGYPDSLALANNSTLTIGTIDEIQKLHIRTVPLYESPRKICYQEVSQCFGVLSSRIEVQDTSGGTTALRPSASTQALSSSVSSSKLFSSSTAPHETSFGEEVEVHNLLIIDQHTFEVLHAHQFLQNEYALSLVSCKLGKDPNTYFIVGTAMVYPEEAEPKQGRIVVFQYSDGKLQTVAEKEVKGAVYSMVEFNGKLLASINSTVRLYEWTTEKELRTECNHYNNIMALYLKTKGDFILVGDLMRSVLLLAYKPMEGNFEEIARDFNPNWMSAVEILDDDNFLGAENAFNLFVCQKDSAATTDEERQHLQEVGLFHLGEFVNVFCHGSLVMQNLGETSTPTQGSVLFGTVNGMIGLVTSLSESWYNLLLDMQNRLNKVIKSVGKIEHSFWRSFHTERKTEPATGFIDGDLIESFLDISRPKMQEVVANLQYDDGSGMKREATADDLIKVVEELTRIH
T1 sequence (A0A0G2JVD9 1-562): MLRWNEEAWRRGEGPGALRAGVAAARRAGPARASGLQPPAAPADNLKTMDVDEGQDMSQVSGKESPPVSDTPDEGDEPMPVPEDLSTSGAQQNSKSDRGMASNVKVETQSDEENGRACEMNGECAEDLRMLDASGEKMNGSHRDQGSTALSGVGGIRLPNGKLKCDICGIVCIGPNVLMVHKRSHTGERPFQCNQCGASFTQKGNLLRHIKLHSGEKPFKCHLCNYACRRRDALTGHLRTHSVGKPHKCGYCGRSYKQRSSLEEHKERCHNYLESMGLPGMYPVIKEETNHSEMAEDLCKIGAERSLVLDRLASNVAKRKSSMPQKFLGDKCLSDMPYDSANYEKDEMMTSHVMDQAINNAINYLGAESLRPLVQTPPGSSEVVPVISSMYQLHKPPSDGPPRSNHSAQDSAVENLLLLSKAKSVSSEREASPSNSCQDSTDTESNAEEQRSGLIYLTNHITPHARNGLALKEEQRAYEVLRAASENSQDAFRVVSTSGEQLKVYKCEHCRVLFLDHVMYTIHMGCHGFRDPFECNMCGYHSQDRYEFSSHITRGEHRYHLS
T1 sequence (Q56AP7 whole entry partner): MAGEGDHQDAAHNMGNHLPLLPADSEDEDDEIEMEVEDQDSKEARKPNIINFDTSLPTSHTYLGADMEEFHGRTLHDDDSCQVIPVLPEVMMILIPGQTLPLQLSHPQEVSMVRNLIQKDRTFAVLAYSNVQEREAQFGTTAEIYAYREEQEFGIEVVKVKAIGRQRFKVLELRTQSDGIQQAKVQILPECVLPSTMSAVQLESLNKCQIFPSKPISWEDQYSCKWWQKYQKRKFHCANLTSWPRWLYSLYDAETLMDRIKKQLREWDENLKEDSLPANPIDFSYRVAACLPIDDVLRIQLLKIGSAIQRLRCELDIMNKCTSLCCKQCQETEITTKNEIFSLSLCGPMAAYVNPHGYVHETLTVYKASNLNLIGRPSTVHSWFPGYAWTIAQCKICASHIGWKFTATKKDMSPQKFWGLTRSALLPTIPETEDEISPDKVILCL
Chain of G1 to S Phase Transition 1 (GSPT1) (Q96SW2 whole entry partner, species assumed): as the sequence (Q96SW2 whole entry) above
Chain of G1 to S Phase Transition 1 (GSPT1) (Q16531 2-1140 partner limits assumed, species assumed): as the sequence (Q16531 2-1140 partner limits assumed) above
Chain of G1 to S Phase Transition 1 (GSPT1) (P15170 whole entry, species assumed): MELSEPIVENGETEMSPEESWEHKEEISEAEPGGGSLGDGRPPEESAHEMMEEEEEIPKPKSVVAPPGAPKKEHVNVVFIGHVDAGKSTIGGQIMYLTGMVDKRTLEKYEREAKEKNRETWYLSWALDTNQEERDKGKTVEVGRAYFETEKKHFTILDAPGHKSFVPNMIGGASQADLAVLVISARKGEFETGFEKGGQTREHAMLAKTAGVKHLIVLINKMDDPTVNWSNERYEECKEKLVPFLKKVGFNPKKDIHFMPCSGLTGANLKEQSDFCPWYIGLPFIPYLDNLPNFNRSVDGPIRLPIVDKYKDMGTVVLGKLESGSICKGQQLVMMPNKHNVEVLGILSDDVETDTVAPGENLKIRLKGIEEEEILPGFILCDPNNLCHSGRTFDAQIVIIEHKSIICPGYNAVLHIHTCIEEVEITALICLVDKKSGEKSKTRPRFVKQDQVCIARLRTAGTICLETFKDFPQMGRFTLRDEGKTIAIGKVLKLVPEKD

Question: With `O=C1CC[C@H](N2C(=O)c3cccc4c(Cc5ccc(CN6CCOCC6)cc5)ccc2c34)C(=O)N1` (single isomer, unassigned) [Compound 1] as the compound, how does the IC50 [1] read?
Answer: 1.7 nM

Question: What about the “effect on GSPT1” value [2] of the same compound?
Answer: no significant effect

Question: What about the effect on viability (HepG2 liver cancer cells) of the same compound?
Answer: no significant effect

Question: What about the IKZF1 degradation (IKZF1) of the same compound?
Answer: not degraded

Question: What about the GI50 (NCIH929.1 cells) of the same compound?
Answer: 0.0743 nM

Question: And the “tumor volume after crossover from pomalidomide” value (RPMI-8226 tumors)?
Answer: rapid tumor regression; also recorded: began to decrease

Question: And the “concentration of caspase-3 and IRF-1” value [3]?
Answer: increased

Question: What about the “percentage of IKZF1, IKZF3, and IRF-4” value [3] of the same compound?
Answer: decreased

Question: And the AUC(0-inf) ([4]; dose normalized to 1 mg/kg)?
Answer: 1280 ng·h/mL

Question: What about the Cmax ([4]; dose normalized to 1 mg/kg) of the same compound?
Answer: 83 ng/mL

Question: What about the half-life ([4]; read-out: T ½ (converted)) of the same compound?
Answer: 9 h

Question: What about the “tumor volume versus pomalidomide 3000 μg/kg” value ([5]; 10, 30 and 100 μg/kg) of the same compound?
Answer: reduced tumor volume more than pomalidomide

Question: And the “Statistical Significance Compared to Vehicle” value ([5]; Dose Level (mg/kg) 10, PO QD)?
Answer: <0.0001

Question: What about the “Statistical Significance Compared to Vehicle” value ([5]; Dose Level (mg/kg) 30, PO QD) of the same compound?
Answer: <0.0001

Question: What about the “Statistical Significance Compared to Vehicle” value ([5]; Dose Level (mg/kg) 100, PO QD) of the same compound?
Answer: <0.0001

Question: What about the “time for the IKZF3 level to reach 50% of its pretreatment level” value (IKZF3; NCI-H929 tumor model, single dose) of the same compound?
Answer: more than 48 hours

Question: And the “duration of plasma and tumor concentrations” value (IKZF3; dosed at a 10-fold lower dose than CC-92480)?
Answer: measurable plasma and tumor concentrations for longer than CC-92480

Question: And the IC50 (WSU-DLCL2)?
Answer: 2.8 nM

Question: What about the IC50 (DL40) of the same compound?
Answer: 0.91 nM

Question: What about the IC50 (SR) of the same compound?
Answer: 16.2 nM

Question: And the IC50 (HH)?
Answer: 58 nM

Question: What about the IC50 (MM.1R) of the same compound?
Answer: 0.083 nM

Question: What about the IC50 (KMS-26) of the same compound?
Answer: 0.789 nM
